Results on 1 molecule are retold here after article PMC5847048 (Psychopharmacology, 2017).

The test system of data set [1] is middle-aged mice (14–15 months old). Briefly: Contextual serial discrimination (CSD) task. The format is in vivo, mouse. The conditions noted are these: for Post hoc analysis of donepezil effect on SCM score for all S 47445 levels (Dunnett, versus vehicle group): all levels of S 47445 pooled. The procedure: (§1) Treatments were administered per os daily for nine consecutive days for studies involving the CSD and SA tasks. The 8th and the 9th oral administrations were given 60 min before acquisition and test phases in the CSD task, or before the training and the test sessions in the SA task.
The studies were carried out on mice according to the procedure described in full by Celerier et al. ([2004]) and Tronche et al. ([2010]) (Fig.1). Briefly, the mouse learns two consecutive spatial discriminations (D1 and D2) in a four hole-board apparatus (45 × 45 × 30 cm) enclosed with gray Plexiglas walls. The floor of the hole-board was interchangeable (white and rough versus black and smooth). On the floor, four holes opening on a food cup (3-cm diameter × 2.5-cm depth) were located 6 cm away from the sidewalls. Photocells located into the holes allowed an automatic recording of the number of head-dips in each hole.
Fig. 1 a Contextual serial discrimination: at the acquisition phase, mice performed two consecutive spatial discrimination sessions varying by the color and texture of the floor, i.e., D1, discrimination 1, and D2, discrimination 2. For each discrimination session, only one out of the four holes of the apparatus was baited (hashed circles). […] One hour prior to acquisition and test phases, mice received a per os administration of the compounds or vehicle solution in a chamber placed in a room (room C) different from the one in which the behavioral experiments were conducted (room A). Subsequently, mice were submitted to the test phase in which they were repositioned on the floor of the first discrimination without any food pellet in the apparatus. b Two types of responses were calculated: (i) correct responses corresponding to head-dips into the hole baited at the acquisition of the first discrimination (D1), on the same floor context; (ii) interference responses corresponding to head-dips into the hole baited at the other (second) discrimination (D2). Both parameters allow calculation of the SCM score
Mice were partially food-deprived for 1 week prior to experimentation and were maintained on a 12 ± 2% loss of their body weight throughout behavioral testing to increase motivation for food reward. During the food deprivation phase, mice were handled daily to familiarize them with the experimenter.
During the acquisition session, mice were first placed at the center of the board in a plastic tube for 15 s and then learned two successive spatial discriminations (D1 and D2) for 6 min each and were each separated by a 2-min interval. Between two sessions, each mouse was placed in its home cage in an animal housing room. For D1, ten 20-mg pellets were available only in one of the four holes in the board. For D2, ten 20-mg pellets were located in the opposite symmetrical hole. The environmental spatial cues remained at the same place for D1 and D2. Within each group, the floors used for the first and second discrimination (D1 and D2) were counterbalanced at the acquisition phase from one mouse to the other. A minimal amount of eight pellets should be eaten per mouse at either D1 or D2 during the acquisition phase.
During memory testing, D1 and D2 discriminations were performed in independent groups of mice, being replaced either on the floor of D1 or of D2. The food-deprived mice were replaced either on the floor of D1 or on the floor of D2. In each case, mice were allowed to explore the apparatus freely and performance was assessed by measuring the exploration for each hole for 6 min without any pellets in the apparatus. During the procedure, photocells allowed measurement of the number of head dips in each hole. Different parameters were further calculated: % of correct responses (head-dips into the hole previously baited on the same floor context), % of interfering responses (head-dips into the hole previously baited on the other floor context), and % of errors (head-dips into the two holes never previously baited).

The subject of data set [2] is aged mice (22–24 months old). Briefly: Radial maze working memory task. Format: in vivo, mouse. The conditions noted are these: donepezil 0.3 mg/kg s.c.; aged mice.
Experimental: In the radial arm maze task, treatments were administered subcutaneously (s.c.) once a day 60 min prior to testing from the 2 days of habituation to the 12 days of memory testing.
The radial maze (Imetronic system, Pessac, France) was fully automated and enabled by video-tracking automatic testing and recording. Briefly, each mouse was separately assigned to six adjacent arms which were grouped into three pairs (A, B, C). These three pairs were presented repeatedly among the successive trials of each testing session. The location of the food reward varied in each pair according to an alternation rule among successive trials. Namely, among the two arms opened in a specific trial, the food was inserted in the arm which was not visited in the previous trial within the same pair. The mouse must therefore remember which of the two arms was visited in a specific trial until next presentation of the same pair, and so on in order to alternate its choice among successive presentations of any pair. At the beginning of each daily session, the mouse was placed in the central platform of the radial maze with all arms closed. One pair of arms only was opened at the beginning of each trial, and the mouse was required to visit one arm. The door of the non-chosen arm was closed as soon as the mouse reached the end of the chosen arm. The mouse was allowed to run back to the central platform of his own accord, and then, the door of the chosen arm was closed. The mouse remained in the central platform until the following trial (intertrial interval 10 s). Since three pairs were concurrently used, three specific arm visits must be kept in memory by the mouse until their utilization by using short-term working memory. After 2 days of free exploration in the maze (habituation), mice were submitted to 12 consecutive testing sessions: one session of 23 trials (3 “acquisition-only trials,” one by pair, and 20 “acquisition and test trials”) per day, i.e., a total of 276 trials (240 test trials).
Each session consisted of alternate presentations of pairs A, B, and C. The first three trials with each pair were acquisition trials (both arms rewarded). Each of the following trials was at the same time an acquisition trial (for the following trial with the same pair) and a test trial (for the arm visit made during the preceding trial with the same pair); the rewarded arm was the one that has not been visited on the preceding trial with the same pair. Memory demand varied across successive trials according to the retention interval RI (i.e., the number of intervening trials with other pairs between two successive presentations of the same pair). The retention interval for one specific arm visit (e.g., within pair A) depends on the number of concurring trials (i.e., with pairs B and C) occurring till next trial with the same pair (A). Indeed, such a variable amount of interposed trials proportionally increases the delay between acquisition and test and may also generate retroactive interference. There are five levels of retention interval: from 0, corresponding to “no interposed pair,” to 4, corresponding to a sequence of four interposed trials between n-1 and n trials.
During habituation, the time needed for visiting all six arms per session day was measured. During memory testing, memory performance was evaluated according to the percentage of correct alternation responses between successive trials with the same pair in three different manners.
Data set [3] relates to aged mice (18–19 months old). The data set is described as follows: Sequential/spontaneous alternation (SA) working memory task in T-maze. The conditions noted are these: donepezil 0.1 mg/kg p.o. alone, ITI 90 s, n = 12. Format: in vivo, mouse. The procedure:
as §1
The spontaneous alternation (SA) task was performed in independent groups of mice as regards to the CSD and radial maze tasks. The SA task allows investigation of aged-induced working memory impairments (Vandesquille et al. [2011]). In this task, mice are submitted to a series of successive choices in a T-maze. To alternate from trial to trial, animals have to remember at each choice (except the first one) only the previous trial and to reset the interfering information from trial to trial over a series. This resetting mechanism is a main aspect of working memory (Aggleton et al. [1986]; Béracochéa and Jaffard, [1987]; Kesner [2005]).
Behavioral tests were conducted in a gray Plexiglas T-maze. Stem and arms are 35 cm long, 15 cm wide, and 10 cm high. The starting box (10 cm × 12 cm) and each goal arm are separated from the central alley by a vertical sliding door, with opening and closing monitored by a computer. Photoelectric cells allow recording of both the choice of the goal arm (left or right) and the latency (in seconds) that elapsed between the opening of the starting box and the closing of the goal box. The T-maze is located at the center of a room with various allocentric cues (white or black or striped card boards) located on the wall 1 m above the apparatus.
Animals were not food deprived, and no food reinforcement was used. Animals were first submitted to a habituation phase consisting of two free exploration sessions of 10 min each, over two consecutive days (one session per day) in the apparatus with all doors opened. At the end of the habituation phase, all animals were submitted to a training phase, involving a series of seven successive trials separated by a 30-s intertrial interval (ITI). The training phase was aimed at familiarizing the animals with the opening and closing of the doors.
For the training session, animals were submitted to a sequence of seven successive identical trials. At the beginning of a trial, mice were placed in the starting box and after a confinement period (30 s, predefined ITI), the door to the stem was opened. When the mouse entered one of the goal arms, the door was closed and the chosen arm was recorded. After a 30-s confinement period in the chosen arm, the mouse was gently returned to the starting box for a second trial, identical to the first one. To avoid olfactory cues in the apparatus, visible traces of urine were removed and the general procedure was implemented as in the training phase, except that the ITI was extended to 90 s and animals were submitted to a series of […] successive trials. […] Moreover, an 8th trial was added to the series which was separated from the 7th one by a 5-s ITI. […] The alternation score (in percentage) was used as an index of memory performance. An alternation is defined as a visit in a given arm followed by a visit into the other arm. The successive sequence of visits for the seven first trials determines the level of alternation. A percentage of alternation was calculated: number of alternations performed/number maximal of alternation. This percentage is calculated for each mouse.
For the sequential alternation task, mean and standard errors of the mean (SEM) were calculated for each group of treatment. In addition to % alternation drawn over the seven trials of the series, behavioral performances were also expressed in percentage of alternation drawn from blocks of two consecutive trials (block 1: trials 2 + 3; block 2: trials 4 + 5; block 3: trials 6 + 7). The analyses per trial blocks allowed evaluation of proactive interference over the series (Vandesquille et al. [2011], [2013]). Statistical analyses were performed using the Statview 5.0 software. […]

For data set [4], the system named is aged mice (22–24 months old). On the set-up: method as in Marighetto et al., [2008b]. The note with it: ref Marighetto et al., [2008b], cited from earlier work.
For a further data set, the system named is mice. The data set is described as follows: Primary observation (Irwin) test. The note with it: donepezil alone.

Take `COc1cc2c(cc1OC)C(=O)C(CC1CCN(Cc3ccccc3)CC1)C2` (centres unmarked) [Donepezil, reference compound]: the “Total number of explorations and % exploration of the baited hole, acquisition phase” value in data set [1] (Experiment 1 (study A and B), compounds alone, p> 0.10 in all analyses) is reported as “No significant between-groups difference”. Also, in data set [1] (Experiment 1, S 47445 at all doses, donepezil at the active doses, versus middle-aged vehicle, data not shown), the “Memory performance in the second discrimination (D2)” value is “did not alter memory performance”. Besides, the “Total number of head-dips, test phase” value in data set [1] (Experiment 1, versus vehicles (p > 0.10 in all comparisons), data not shown) was “no significant effect”. Besides, in data set [1] (Supplemental data 2, S 47445 0.03–0.3 mg/kg p.o. (p=0.951), Donepezil 0.03 and 0.1 mg/kg (p=0.074)), the “SCM score of the second discrimination (D2), dose effect at pooled levels of the other drug” value is given as “no significant effect”. Moreover, the “Post hoc analysis of donepezil effect on SCM score for all S 47445 levels (Dunnett, versus vehicle group)” value in data set [1] (donepezil 0.03 mg/kg) is “NS (p = 0.079) (NS p > 0.050)”; in data set [1] (donepezil 0.1 mg/kg), “*** (***p ≤ 0.001)”. Besides, the “Performance as a function of retention interval (RI 0–4) versus chance level” value in data set [2] is recorded as “remained significantly above chance up to RI = 3”. Also, in data set [3], the “Alternation score, 3rd block of trials (trials 6 + 7)” value is 45.833 ± 4.167 n = 12%. Moreover, the “Alternation score, seven first trials of the series” value in data set [3] is on record as “alternated significantly above vehicles”. In data set [4] (donepezil 0.3 mg/kg i.p.), the “Activity in radial maze working memory task” value is listed as “limited to the organizational component of the task”. Also, the “Active dose in the same working memory task” value in data set [4] (donepezil) is 0.3 mg/kg but not of 1 mg/kg was found to be active. Also, the “Symptoms observed in the Irwin test” value in the data set on mice (3 mg/kg p.o.) was “Tremor, hypothermia, and decreases in activity, abdominal muscle tone, and reactivity to touch”. Besides, the “Additional symptoms observed in the Irwin test” value with mice (10 mg/kg p.o.) is “Straub tail and abnormal gait (rolling)”. In the data set with mice (dose range 3–10 mg/kg p.o., mice), the “Observable effects in the Irwin test” value was “clear and dose-dependent sedative/myorelaxant effects”.
